Results as given in patent US7045532B2 (Millennium Pharmaceuticals, Inc., priority 1999, dated 2006).
Like-named read-outs stand apart in the source and are kept apart here.

Legend:
ACE-2 [1] = molecular target: T1, ACE-2 (Homo sapiens, UniProt Q9BYF1); experiment: ACE-2 Competitive Substrate Assay (ACS Assay); assay type: biochemical
T1 construct: a stop codon inserted after the serine immediately preceding the transmembrane domain; made in house; host or cells: CHO K1 cells (transient transfection, purified from conditioned medium)
Protocol: An example of such an assay is the ACE-2 Competitive Substrate Assay (ACS Assay).
ACE-2 enzymatic activity was assayed in microtitre plates by the following procedure. The ACE-2 assay buffer used contained 50 mM MES (Boehringer-Mannheim), 300 mM NaCl (Sigma) and 0.01% Brij-35 (Pierce Chemical Co.) at pH 6.5.
Reactions were mixed and incubated at 25° C.
The activity of the test compounds was investigated using the procedure outlined above. The compounds were tested in 5% DMSO. Enzyme activity was measured at 12 compound concentrations.
The following reagents, equipment, stock solutions, and working solutions are used for the ACE-2 assay.
The assay buffer is prepared using 50 mM Mes, 300 mM NaCl, and 0.01% Brij 35, pH 6.5. These components are measured and made up to approximately 800 ml with nanopure water. Using 1M NaOH the pH is adjusted to 6.5 and the solution is then made up to the final volume of 1 L using nanopure water. The buffer is filtered through a 0.45 um disposable filter unit and stored at +4° C. until needed.
This working solution maintains activity for up to 8 hours at room temperature.
The working ACE-2 solution (for using with Mca-APK(Dnp)) is prepared by thawing ACE-2 and diluting it to a concentration of 1 nM using the assay buffer at room temperature.
These solutions are stable up to 8 hours but can not be frozen-thawed for reuse.
Multiple well plates are used for this experiment.
Approximately 360 compounds are tested per plate. Five μl per of each test compound is added in each well. […] Immediately thereafter, 20 μl of Mca-XXX(Dnp) working solution is added per well and mixed for 30 seconds. The reaction is allowed to progress for approximately 60 minutes.
After approximately 60 minutes, 20 μl of 50 mM EDTA is added per well (reaction is linear up to 90 minutes) and mixed for 30 seconds. At this point the fluorescent signal is stable up to 20 hours at room temperature.

ACE-2 [2] = molecular target: ACE-2 (Rattus norvegicus, UniProt Q5EGZ1); experiment: ACE-2 Competitive Substrate Assay, rat ACE-2; assay type: biochemical; details: Ki class; compounds tested in 5% DMSO, 12 compound concentrations
ACE (Sigma, A2580) = molecular target: T2, ACE (Sigma, A2580) (Sus scrofa, UniProt F1RRW5); experiment: ACE enzymatic activity assay; assay type: biochemical, porcine; details: Ki class; compounds tested in 5% DMSO, 12 concentrations
T2 construct: ACE from porcine kidney; purchased Sigma A2580; host or cells: porcine kidney
T2 sequence (F1RRW5 34-1309): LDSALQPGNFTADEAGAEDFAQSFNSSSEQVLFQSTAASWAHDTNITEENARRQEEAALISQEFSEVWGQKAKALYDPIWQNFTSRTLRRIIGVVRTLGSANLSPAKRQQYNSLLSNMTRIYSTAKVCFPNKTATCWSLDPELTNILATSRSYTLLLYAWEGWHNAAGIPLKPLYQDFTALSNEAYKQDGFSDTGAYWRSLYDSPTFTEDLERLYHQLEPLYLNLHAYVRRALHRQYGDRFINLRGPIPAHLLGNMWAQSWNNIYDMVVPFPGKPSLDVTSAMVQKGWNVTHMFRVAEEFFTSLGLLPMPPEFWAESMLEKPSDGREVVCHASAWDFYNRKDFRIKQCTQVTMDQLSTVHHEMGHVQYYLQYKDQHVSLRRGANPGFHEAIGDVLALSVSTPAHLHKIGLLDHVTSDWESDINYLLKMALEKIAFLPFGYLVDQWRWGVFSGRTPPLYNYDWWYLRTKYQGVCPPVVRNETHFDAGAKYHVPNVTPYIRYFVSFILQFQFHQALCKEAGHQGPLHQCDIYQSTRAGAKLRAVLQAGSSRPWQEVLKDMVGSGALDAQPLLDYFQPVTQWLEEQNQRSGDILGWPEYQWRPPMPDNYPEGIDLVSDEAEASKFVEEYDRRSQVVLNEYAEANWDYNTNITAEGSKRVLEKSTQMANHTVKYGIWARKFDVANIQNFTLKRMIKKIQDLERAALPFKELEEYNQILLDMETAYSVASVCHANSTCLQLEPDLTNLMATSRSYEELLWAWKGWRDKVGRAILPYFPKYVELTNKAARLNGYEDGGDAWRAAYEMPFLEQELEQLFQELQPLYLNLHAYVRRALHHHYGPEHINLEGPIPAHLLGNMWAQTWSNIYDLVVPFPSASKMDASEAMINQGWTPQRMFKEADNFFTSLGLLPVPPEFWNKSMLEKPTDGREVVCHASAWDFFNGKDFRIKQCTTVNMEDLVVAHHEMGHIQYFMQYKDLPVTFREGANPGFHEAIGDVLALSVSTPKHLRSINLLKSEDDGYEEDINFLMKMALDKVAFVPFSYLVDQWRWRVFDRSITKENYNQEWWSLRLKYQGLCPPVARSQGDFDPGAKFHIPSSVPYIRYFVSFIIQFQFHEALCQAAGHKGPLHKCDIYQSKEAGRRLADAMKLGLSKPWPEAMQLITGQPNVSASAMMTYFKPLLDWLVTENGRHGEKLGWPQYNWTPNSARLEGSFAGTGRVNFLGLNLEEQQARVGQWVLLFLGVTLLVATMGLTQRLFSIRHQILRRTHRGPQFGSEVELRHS
How it was run: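 Fluorogenic substrate cleavage by 1 nM ACE, read at 320/405 nm after EDTA stop at ~30 min. Reactions at 25 °C, pH 7.5, in HEPES/NaCl/Brij-35 buffer; compounds tested at 12 concentrations in 5% DMSO.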

Carboxypeptidase A = molecular target: T3, Carboxypeptidase A (Bos taurus, UniProt P00730); experiment: Carboxypeptidase A activity assay; assay type: biochemical; details: Ki class; compounds tested in 5% DMSO, 12 concentrations
T3 sequence (P00730 111-419): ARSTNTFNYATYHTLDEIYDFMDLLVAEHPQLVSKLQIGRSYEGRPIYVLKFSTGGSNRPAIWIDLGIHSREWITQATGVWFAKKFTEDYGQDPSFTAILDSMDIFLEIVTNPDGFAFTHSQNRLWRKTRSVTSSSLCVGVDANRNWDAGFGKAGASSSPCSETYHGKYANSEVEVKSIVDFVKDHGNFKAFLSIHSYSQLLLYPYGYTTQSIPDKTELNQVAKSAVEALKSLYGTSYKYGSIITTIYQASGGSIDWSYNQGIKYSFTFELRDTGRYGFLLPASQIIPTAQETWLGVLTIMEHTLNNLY
How it was run: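 Ki obtained by correcting apparent Ki for substrate, Ki=Kiapp/(1+[S]/Km), from 12-concentration series. Enzyme activity read by absorbance at 328 nm with 5% DMSO present, EDTA stop.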

[3] = Ki class, compounds tested in 5% DMSO, 12 compound concentrations, Ki=Kiapp/(1+[S]/Km), read-out: Human ACE-2 Activity
[4] = Table 3, very good ACE-2 inhibiting compounds, species not given, read-out: ACE-2 Activity, Ki
[5] = Ki class, compounds tested in 5% DMSO, 12 concentrations, read-out: Human ACE-2 Activity

T1 sequence (Q9BYF1 18-740 limits assumed): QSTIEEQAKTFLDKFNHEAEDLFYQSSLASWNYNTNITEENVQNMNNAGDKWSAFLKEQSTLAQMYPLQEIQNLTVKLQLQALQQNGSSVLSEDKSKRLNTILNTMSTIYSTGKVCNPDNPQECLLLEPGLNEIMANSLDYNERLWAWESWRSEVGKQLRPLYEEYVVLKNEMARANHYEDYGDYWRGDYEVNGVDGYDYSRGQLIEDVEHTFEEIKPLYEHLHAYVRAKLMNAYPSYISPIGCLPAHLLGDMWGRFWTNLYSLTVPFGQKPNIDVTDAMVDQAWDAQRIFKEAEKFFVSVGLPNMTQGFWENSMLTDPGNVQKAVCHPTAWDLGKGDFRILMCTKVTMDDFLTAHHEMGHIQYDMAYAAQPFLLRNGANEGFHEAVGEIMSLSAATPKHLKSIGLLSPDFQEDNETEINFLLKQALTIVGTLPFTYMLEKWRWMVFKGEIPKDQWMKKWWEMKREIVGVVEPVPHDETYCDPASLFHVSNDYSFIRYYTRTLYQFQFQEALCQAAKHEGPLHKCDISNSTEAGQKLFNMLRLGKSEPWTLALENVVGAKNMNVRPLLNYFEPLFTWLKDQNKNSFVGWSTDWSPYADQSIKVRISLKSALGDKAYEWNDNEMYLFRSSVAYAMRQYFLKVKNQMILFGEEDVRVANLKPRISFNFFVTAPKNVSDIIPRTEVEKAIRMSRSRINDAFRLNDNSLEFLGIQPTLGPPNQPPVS
Sequence of ACE-2 (Rattus norvegicus, UniProt Q5EGZ1) (Q5EGZ1 18-805): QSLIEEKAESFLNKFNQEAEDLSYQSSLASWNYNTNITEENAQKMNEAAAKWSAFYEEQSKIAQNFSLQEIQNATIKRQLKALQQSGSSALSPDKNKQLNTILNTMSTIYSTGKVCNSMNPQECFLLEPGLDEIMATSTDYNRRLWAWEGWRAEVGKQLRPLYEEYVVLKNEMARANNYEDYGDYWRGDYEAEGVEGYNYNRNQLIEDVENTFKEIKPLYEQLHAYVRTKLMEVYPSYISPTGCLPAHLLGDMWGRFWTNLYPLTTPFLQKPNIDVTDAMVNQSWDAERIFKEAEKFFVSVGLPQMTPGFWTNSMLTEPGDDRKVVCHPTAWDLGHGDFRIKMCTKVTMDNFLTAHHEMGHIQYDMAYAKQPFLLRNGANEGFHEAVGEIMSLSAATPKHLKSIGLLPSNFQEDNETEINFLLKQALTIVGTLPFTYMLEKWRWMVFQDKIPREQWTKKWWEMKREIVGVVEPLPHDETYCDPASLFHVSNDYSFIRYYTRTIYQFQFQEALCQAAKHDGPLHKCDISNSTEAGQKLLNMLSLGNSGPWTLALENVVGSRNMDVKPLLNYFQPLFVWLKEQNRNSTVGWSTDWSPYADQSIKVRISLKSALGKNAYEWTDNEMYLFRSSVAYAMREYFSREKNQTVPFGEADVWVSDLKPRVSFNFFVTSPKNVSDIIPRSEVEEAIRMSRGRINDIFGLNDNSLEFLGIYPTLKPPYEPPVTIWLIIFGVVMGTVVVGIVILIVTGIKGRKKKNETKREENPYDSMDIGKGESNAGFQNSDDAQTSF

SMILES | Ki (ACE-2 [1]; [3]) [nM] | Ki (ACE-2 [1]; [4]) [nM] | Ki (ACE-2 [2]) [nM] | Ki (ACE-2 [1]; [5]) [nM] | Ki (ACE (Sigma, A2580)) [nM] | Ki (Carboxypeptidase A) [nM]
CC(C)CC(N[C@@H](Cc1cncn1Cc1ccc(F)cc1)C(=O)O)C(=O)O (single isomer, unassigned) [II, 2-[1-Carboxy-2-[3-(4-fluoro-benzyl)-3H-imidazol-4-yl]-ethylamino]4-methyl-pentanoic acid] | < 100 | 50 to 100 | < 100 |  |  | 
CC(C)CC(N[C@@H](Cc1cncn1Cc1cccc(Cl)c1Cl)C(=O)O)C(=O)O (single isomer, unassigned) [IX, 2-[1-Carboxy-2-[3-(2,3-dichloro-benzyl)-3H-imidazol-4-yl]-ethylamino]4-methyl-pentanoic acid] | > 500 | < 50 | < 100 |  |  | 
CC(C)CC(N[C@@H](Cc1cncn1Cc1cccc(C(F)(F)F)c1)C(=O)O)C(=O)O (single isomer, unassigned) [IZ, 2-[1-Carboxy-2-[3-(3-trifluoromethyl-benzyl)-3H-imidazol-4-yl]-ethylamino]4-methyl-pentanoic acid] | < 100 | < 50 | < 100 |  |  | 
CC(C)CC(N[C@@H](Cc1cncn1Cc1cc(Cl)ccc1Cl)C(=O)O)C(=O)O (single isomer, unassigned) [JB, 2-[1-Carboxy-2-[3-(2,5-dichloro-benzyl)-3H-imidazol-4-yl]-ethylamino]4-methyl-pentanoic acid] | < 100 | < 50 | < 100 |  |  | 
CC(C)CC(N[C@@H](Cc1cncn1Cc1ccc2c(c1)OCO2)C(=O)O)C(=O)O (single isomer, unassigned) [JE] | < 100 | < 50 | < 100 |  |  | 
CC(C)CC(N[C@@H](Cc1cncn1CCC1CCCCC1)C(=O)O)C(=O)O (single isomer, unassigned) [JI, 2-[1-Carboxy-2-[3-(2-cyclohexyl-ethyl)-3H-imidazol-4-yl]-ethylamino]4-methyl-pentanoic acid] | < 100 | < 50 | < 100 |  |  | 
CC(C)CC(N[C@@H](Cc1cncn1CCc1ccccc1)C(=O)O)C(=O)O (single isomer, unassigned) [JK, 2-[1-Carboxy-2-[3-phenethyl-3H-imidazol-4-yl)-ethylamino]-4-methyl-pentanoic acid] | < 100 |  | < 100 |  |  | 
CC(C)CC(N[C@@H](Cc1cncn1Cc1cccc(I)c1)C(=O)O)C(=O)O (single isomer, unassigned) [JO, 2-[1-Carboxy-2-[3-(3-iodobenzyl)-3H-imidazol-4-yl]-ethylamino]-4-methyl-pentanoic acid] | < 100 | < 50 | < 100 |  |  | 
CC(C)CC(N[C@@H](Cc1cncn1Cc1cccc(F)c1)C(=O)O)C(=O)O (single isomer, unassigned) [JQ, 2-[1-Carboxy-2-[3-(3-fluoro-benzyl)-3H-imidazol-4-yl]-ethylamino]4-methyl-pentanoic acid] | < 100 | < 50 | < 100 |  |  | 
CC(C)C[C@H](NC(=O)NCCc1ccccc1)C(=O)O [DV, 4-Methyl-2-(3-phenethyl-ureido)-pentanoic acid] |  |  |  | > 500 | > 50000 | < 10000
CC(C)C[C@H](NCC(=O)c1ccccc1)C(=O)O [DW, 4-Methyl-2-(2-oxo-2-phenyl-ethylamino)-pentanoic acid] |  |  |  | > 500 | > 50000 | < 10000
CC(C)CCN[C@@H](Cc1c[nH]cn1)C(=O)O [DY, 3-(1H-Imidazol-4-yl)-2-(3-methyl-butylamino)-propionic acid] |  |  |  | > 500 | > 50000 | > 50000
CC(C)CC(NCCc1c[nH]cn1)C(=O)O (centres unmarked) [DZ, 2-[2-(1H-imidazol-4-yl)-ethylamino]-4-methyl-pentanoic acid] |  |  |  | > 500 | > 50000 | > 50000
CC(C)CC(N[C@H](CC(=O)O)Cc1cccs1)C(=O)O (some centres unmarked) [EI, 2-(1-Carboxymethyl-2-thiophen-2-yl-ethylamino)-4-methyl-pentanoic acid] |  |  |  | > 500 | > 50000 | > 50000
O=C(O)C(Cc1ccccc1)N[C@@H](Cc1cnc[nH]1)C(=O)O (some centres unmarked) [EK, 2-(1-Carboxy-2-phenyl-ethylamino)-3-(3H-imidazol-4-yl)-propionicacid] |  |  |  | > 500 | 10000 to 50000 | 10000 to 50000
COc1ccc(C#CC[C@H](N[C@@H](CCc2ccccc2)C(=O)O)C(=O)O)cc1 [FR, 2-(1-Carboxy-3-phenyl-propylamino)-5-(4-methoxy-phenyl)-pent-4-ynoic acid] |  |  |  | > 500 | > 50000 | > 50000
CC(C)CC(N[C@@H](Cc1csc(-c2ccccc2)n1)C(=O)O)C(=O)O (some centres unmarked) [IL, 2-[1-Carboxy-2-(2-phenyl-thiazol-4-yl)-ethylamino]-4-methyl-pentanoic acid] | 100 to 500 | 50 to 100 | < 100 |  |  | 
CC(N[C@@H](Cc1c[nH]cn1)C(=O)O)C(=O)O (some centres unmarked) [N, 2-(1-Carboxy-ethylamino)-3-(1H-imidazol-4-yl)-propionic acid] |  |  |  | > 500 | > 50000 | > 50000
C[C@H](N[C@@H](CCc1ccccc1)C(=O)O)C(=O)O [P, 2-(1-Carboxy-ethylamino)-4-phenyl-butync acid] |  |  |  | > 500 | > 50000 | > 50000
CCCCC(N[C@@H](CC(C)C)C(=O)O)C(=O)O (some centres unmarked) [Q, 2-(1-Carboxy-3-methyl-butylamino)-hexanoic acid] |  |  |  | > 500 | > 50000 | > 50000
CC(C)C[C@H](N[C@H](Cc1ccccc1)C(=O)O)C(=O)O [T, 2-(1-Carboxy-2-phenyl-ethylamino)-4-methyl-pentanoic acid] |  |  |  | > 500 | > 50000 | 10000 to 50000
CC(C)C[C@@H](C(=O)O)N(C)C(CCc1ccccc1)C(=O)O (some centres unmarked) [V, 2-[(1-Carboxy-3-phenyl-propyl)-methyl-amino]-4-methyl-pentanoic acid] |  |  |  | > 500 | > 50000 | > 50000
CCC(NC(Cc1c[nH]c2ccccc12)C(=O)O)C(=O)O (centres unmarked) [W, 2-[1-Carboxy-2-(1H-indol-3-yl)-ethylamino]-butync acid] |  |  |  | > 500 | > 50000 | > 50000
CCCC(N[C@H](Cc1c[nH]c2ccccc12)C(=O)O)C(=O)O (some centres unmarked) [X, 2-[1-Carboxy-2-(1H-indol-3-yl)-ethylamino]-pentanoic acid] |  |  |  | > 500 | > 50000 | > 50000
CSCC[C@H](NC(CCc1ccccc1)C(=O)O)C(=O)O (some centres unmarked) [Y, 2-(1-Carboxy-3-methylsulfanyl-propylamino)-4-phenyl-butync acid] |  |  |  | > 500 | > 50000 | > 50000
CCC(N[C@@H](CCSC)C(=O)O)C(=O)O (some centres unmarked) [Z, 2-(1-Carboxy-propylamino)-4-methylsulfanyl-butyncacid] |  |  |  | > 500 | > 50000 | > 50000
